From ChEMBL document CHEMBL1151298, “Plant anticancer agents XXIX. Cleomiscosin A from Simaba multiflora, Soulamea soulameoides, and Matayba arborescens” (1984)
Values after ≈ are worked out from the molar mass of the structure shown.

Assays:
[1] = system: KB; assay: Cytotoxicity against human KB cells; assay type: functional; conditions: read-out: ED50 (the source's name)
[2] = system: P388; assay: Cytotoxicity against mouse P388 cells; assay type: functional; conditions: read-out: ED50 (the source's name)

How did the EC50 [1] turn out when `COc1cc([C@H]2Oc3c(OC)cc4ccc(=O)oc4c3O[C@@H]2CO)ccc1O` [CLEOMISCOSIN A] was run?
Its EC50 is 4.9 µg/mL (≈ 12.7 µM).

What about the EC50 [2] of the same compound?
The EC50 was 3.8 µg/mL (≈ 9.84 µM).
